# Test results from patent US20260345561A1, “METHODS AND COMPOSITIONS FOR USE IN TREATING AUTOSOMAL RECESSIVE POLYCYSTIC KIDNEY DISEASE (ARPKD)” (The General Hospital Corporation, priority 2022, published 2026).
# Entries after “also recorded” stand apart in the source; their conditions may differ. Like-named read-outs stand apart in the source and are kept apart here.
# B1: rhCXCL16: recombinant human C—X—C Motif Chemokine Ligand 16 (rhCXCL16) for CXCL16 (protein, UniProt Q9H2A7 30-254, looked up)
# C-X-C motif chemokine 16: NEGSVTGSCYCGKRISSDSPPSVQFMNRLRKHLRAYHRCLYYTRFQLLSWSVCGGNKDPWVQELMSCLDLKECGHAYSGIVAHQKHLLPTSPPISQASEGASSDIHTPAQMLLSTLQSTQRPTLPVGSLSSDKELTRPNETTIHTAGHSLAAGPEAGENQKQPEKNAGPTARTSATVPVLCLLAIIFILTAALSYVLCKRRRGQSPQSSPDLPVHYIPVAPDSNT
# Tests used:
# [1] = racemic ketorolac 15 or 30 mg; Guo et al. 2015; cited from earlier work
# PKHD1−/− organoids [2] = experiment: CDH1+ distal tubular enlargement / cyst formation by 3D imaging of cleared whole organoids-on-a-chip; format: cell-based, human; settings: for cyst suppression: Z-DEVD-FMK 1 μM, Quercetagetin 10 μM, rhCXCL16 1 ng/ml (FIG. 3D, E)
# Description: (§1) H9 (WiCell) human ES cells, H9-derived PKHD1 mutants, and ARPKD patient-derived iPSCs (68) were maintained on hESC-qualified Geltrex (Thermo Fisher Scientific) coated plates using StemFit® Basic02 (Ajinomoto Co., Inc.) supplemented with 10 ng/ml of FGF2 (Peprotech), as previously reported (69).
# Heterozygotic (PKHD1+/−) and compound homozygotic (PKHD1−/−) mutant lines were generated using methodology previously outlined (70), which generated clones of isogenic progeny via clonal expansion from single cells. PX459 plasmid encoding a Streptococcus pyogenes Cas9 and guide RNA (sgRNA) targeting the third exon of PKHD1 (5′-[…]-3′; SEQ ID NO:1) was transfected into H9 hESCs to generate the heterozygotic mutant line, which then served as the parental line to generate the compound homozygotic mutant. Transfected cells were selected by transient puromycin treatment. CRISPR/Cas9-induced mutations of individual clones were identified by deep sequencing.
# The organoids were seeded onto the chip devices on day 14 of their differentiation and cultured on chip by flowing cell culture medium composed of ARMPI with GlutaMAX, 1% Antibiotic/Antimycotic solution (Gibco), and 1.5% heat-inactivated fetal bovine serum (Gibco). All cell culture medium was pre-equilibrated to the cell culture incubator environment for at least 2 hr before chip assembly and seeding. The kidney organoids-on-a-chip was then held in a cell culture incubator for 30 min under static conditions, before connecting the inlet perfusion tubing to an IPC-N peristaltic pump (Ismatech) and perfusing the cell culture media at 42.7 μl/min overnight in the incubator. The following day (day 15 of organoid differentiation), the sterile filter was removed from the perfusion line to avoid bubble formation at high perfusion speeds, and the perfusion speed was ramped up to 4.27 mL/min. Cell culture medium was changed in the reservoir every 2-3 days.
# Full media exchanges were conducted every 2-3 days. Treatment of the kidney organoids-on-a-chip was started at day 16 of their differentiation until day 35.
# The chip device was taken out of the incubator for fixation, and the lid was carefully removed in a sterile biosafety cabinet. The kidney organoids adherent on the surface of the ECM were rinsed with PBS, carefully overlayed with 4% PFA, and fixed for 45 min at RT. Post fixation, the samples were washed three times with 0.1% Triton-X (Sigma) for 30 min. Organoids were stained and cleared with ethyl cinnamate (Sigma), as described before (78). The following antibodies were used in these studies: anti-CDH1 (Abcam, ab11512), anti-CFTR (Sigma, HPA021939), anti-LTL (Vector lab, B-1325), anti-PODXL (R&D systems, AF1658), anti-K167 (Dako, m7248), Anti-pS6RP (Cell signaling, 2211S), anti-RAC1 (Developmental Studies Hybridoma Bank, CPTC-RAC1-2), anti-FOS (Abcam, ab190289). Samples were examined by a Zeiss TIRF/LSM 710 confocal microscopy or a Leica […] 8 confocal microscopy, and by using Imaris 3D software (Bitplane).
# (§2) Data in all bar charts and dot plots are expressed as mean±s.d. Statistical analysis was done in GraphPad Prism 9, and statistical significance was attributed to values of P<0.05 as determined by one-way ANOVA with Tukey's multiple-comparisons test unless otherwise noted. Different significance levels (P values) are indicated in each figure with asterisks: *P<0.05, **P<0.01, ***P<0.001, and ****P<0.0001. […] FIG. 1F; n=74 LTL+ tubules with flow, n=66 LTL+ tubules in static culture, n=191 LTL+ tubules treated with forskolin, n=32 CDH1+ tubules with flow, n=27 CDH1+ tubules in static culture, and n=104 CDH1+ tubules treated with forskolin. FIG. 2C; n=16 tubules transfected with siControl, n=17 tubules transfected with siKIF3A.
# [3] = test system: ARPKD patient-derived organoids; settings: prior ARPKD organoid model from patient-derived iPS cells, static culture (ref. 17); cited from earlier work
# RAC1 = settings: cited from earlier work
# ARFIP2 [4] = settings: flow, R-Naproxen 20 μM
# Description: (§3) Total RNA was isolated from kidney organoid samples using TRIzol (Invitrogen, #15596026). cDNA was synthesized from 500 ng of RNA using a High-capacity cDNA Reverse Transcription kit (Applied Biosystems, #4368814) according to the manufacturer's instructions. Real-time PCR was performed using iTaq SYBR green supermix (Bio-Rad, #1725124) and QuantStudio3 Real-time PCR systems. The expression of mRNA was assessed by evaluating threshold cycle (CT) values. The CT values and relative expression levels were normalized by ribosomal protein S18 (RPS18), and the relative amount of mRNA specific to each of the target genes was calculated (n=3 in each experiment).
# as §2, with “siKIF3A. 8 organoids transfected with siControl, and 7 organoids transfected with siKIF3A from 2 independent chips were analyzed in FIG. 2C.” for “siKIF3A.”
# BAIAP2 = settings: flow, R-Naproxen 20 μM
# Description: as §3
# as §2, with “siKIF3A. 8 organoids transfected with siControl, and 7 organoids transfected with siKIF3A from 2 independent chips were analyzed in FIG. 2C.” for “siKIF3A.”
# ARFIP2 [5] = settings: PKHD1−/− organoids, R-Naproxen 20 μM, day 23 (FIG. 5F)
# Description: as §2, with “siKIF3A. 8 organoids transfected with siControl, and 7 organoids transfected with siKIF3A from 2 independent chips were analyzed in FIG. 2C.” for “siKIF3A.”
# COX = settings: cited from earlier work
# [6] = cited from earlier work
# DUSP1 = experiment: qPCR for DUSP1 (FOS downstream gene); format: cell-based, human; settings: PKHD1−/− and ARPKD patient-derived organoids, flow, T-5224 10 μM, day 16 to 23
# Description: (§4) FIG. 2J; n=4 (perfusion), n=4 (rest). FIG. 2K; n=3. […] 3 independent experiments were performed for FIG. 3E. […] FIG. 4H; n=4 (control), n=4 (ARPKD). FIG. 4I; n=4 (control), n=4 (ARPKD).
# NPTX2 = experiment: qPCR for NPTX2 (FOS downstream gene); format: cell-based, human; settings: PKHD1−/− and ARPKD patient-derived organoids, flow, T-5224 10 μM, day 16 to 23
# Description: as §4
# PRDM1 [7] = experiment: qPCR for PRDM1 (FOS downstream gene); format: cell-based, human; settings: PKHD1−/− and ARPKD patient-derived organoids, flow, T-5224 10 μM, day 16 to 23
# Description: as §4
# PRDM1 [8] = experiment: Quantitative immunohistochemistry for PRDM1; format: cell-based, human; settings: PKHD1−/− organoids, T-5224 10 μM, day 23 (FIG. 5F)
# Description: as §4
# FOS = settings: cited from earlier work
# [9] = clinical trials for arthritis / humans (ref. 45); cited from earlier work
# [10] = test system: ARPKD patient-derived organoids; experiment: Cyst formation on cAMP induction in static patient-derived organoids; format: cell-based, human
# Description: as §1
# Kidney organoids were cultured in static condition and treated with 20 μM of forskolin (Sigma, #F6886), a cAMP inducer, from day 14 to day 35.
# as §4
# PKHD1−/− organoids [11] = experiment: Cyst formation / tubular diameter on forskolin treatment in static culture; format: cell-based, human
# Description: as §2, with “siKIF3A. 8 organoids transfected with siControl, and 7 organoids transfected with siKIF3A from 2 independent chips were analyzed in FIG. 2C.” for “siKIF3A.”
# [12] = PKHD1−/− organoids under flow, day 16 to 35, T-5224 10 μM, NSC23766 10 μM, 2-MeOE2 5 μM (FIG. 3D, E)
# [13] = PKHD1−/− organoids under flow, day 16 to 35
# [14] = PKHD1−/− organoids-on-a-chip, day 16 to 35, flow, R-Naproxen 20 μM, R-Ketorolac 1 and 10 μM, T-5224 10 μM (FIG. 4B, C)
# [15] = ARPKD patient-derived organoids, day 16 to 23 (FIG. 14)
# [16] = PKHD1−/− (CRISPR-mutant) organoids, day 16 to 23 (FIG. 5E)
# [17] = forskolin 20 μM, static (FIG. 1F right)
molecule,measurement,setting,value
O=C(c1ccccc1)c1ccc2n1CCC2C(=O)O (racemic) [racemic ketorolac],R-ketorolac level,[1],achieved likely therapeutic ranges of R-ketorolac
"COc1cc2c(cc1O)CC[C@@H]1[C@@H]2CC[C@]2(C)[C@@H](O)CC[C@@H]12 [2-MeOE2, 2-Methoxyestradiol]",CDH1+ tubular enlargement,PKHD1−/− organoids [2]; [12],significant reduction
"Nc1ncnc2c1nc(Br)n2[C@@H]1O[C@@H]2COP(=O)(O)O[C@H]2[C@H]1O [8-Br-cAMP, 8-Bromoadenosine 3′,5′-cyclic monophosphate]",cyst formation in CDH1+ distal nephrons,[3],rarely developed cysts
same,cyst formation in LTL+ proximal tubules,[3],formed cystic structures
CCN(CC)CCCC(C)Nc1nc(C)cc(Nc2ccc3nc(C)cc(N)c3c2)n1 (centres unmarked) [NSC23766],CDH1+ tubular enlargement,PKHD1−/− organoids [2]; [12],significant reduction
O=c1c(O)c(-c2ccc(O)c(O)c2)oc2cc(O)c(O)c(O)c12 [Quercetagetin],cyst suppression,PKHD1−/− organoids [2]; [13],did not affect cyst suppression
O=C(c1ccccc1)c1ccc2n1CC[C@H]2C(=O)O [R-Ketorolac],CDH1+ tubular enlargement,PKHD1−/− organoids [2]; [14],significant reductions
same,inhibitory effect against RAC1,RAC1,inhibitory effect against RAC1
COc1ccc2cc([C@@H](C)C(=O)O)ccc2c1 [R-Naproxen],CDH1+ tubular enlargement,PKHD1−/− organoids [2]; [14],significant reductions
same,cyst suppression (general statement),"PKHD1−/− organoids [2]; present data, R-Naproxen",cyst suppression
same,ARFIP2 expression (qPCR),ARFIP2 [4]; [15],rescued
same,ARFIP2 expression (qPCR),ARFIP2 [4]; [16],rescued
same,BAIAP2 expression (qPCR),BAIAP2; [15],rescued
same,BAIAP2 expression (qPCR),BAIAP2; [16],rescued
same,"ARFIP2 expression (immunohistochemistry), decreased by flow",ARFIP2 [5],rescue
same,RAC1 inhibition,RAC1,enhanced RAC1 inhibition
same,inhibitory effect against RAC1,RAC1,inhibitory effect against RAC1
same,COX inhibition,COX,limited COX inhibition
COc1ccc2cc([C@H](C)C(=O)O)ccc2c1 [S-Naproxen],cyst formation,"PKHD1−/− organoids [2]; PKHD1−/− organoids cultured under flow, S-Naproxen 20 μM (FIG. 11)",did not inhibit cyst formation
same,RAC1 inhibitory activity,RAC1,lacks RAC1 inhibitory activity
same,anti-inflammatory effect,[6],has an anti-inflammatory effect
"O=C(O)CCc1cc(C(=O)c2ccc(OC3CCCC3)cc2O)ccc1OCc1ccc2c(O)noc2c1 [T-5224, 3-{5-[4-(cyclopentyloxy)-2-hydroxybenzoyl]-2-[(3-hydroxy-1,2-benzisoxazol-6-yl)methoxy]phenyl}propionic acid]",CDH1+ tubular enlargement,PKHD1−/− organoids [2]; [12],significant reduction
same,CDH1+ tubular enlargement,PKHD1−/− organoids [2]; [14],significant reductions
same,DUSP1 expression (qPCR),DUSP1,reverse expression
same,NPTX2 expression (qPCR),NPTX2,reverse expression
same,PRDM1 expression (qPCR),PRDM1 [7],reverse expression
same,"PRDM1 expression (immunohistochemistry), decreased by flow",PRDM1 [8],rescue
same,FOS inhibition,FOS,selective FOS inhibitor; also recorded: specific FOS inhibitor
same,safety profile,[9],favorable safety profile; also recorded: proven to be safe in humans
C=C[C@@]1(C)CC(=O)[C@]2(O)[C@@]3(C)[C@@H](O)CCC(C)(C)[C@@H]3[C@H](O)[C@H](OC(C)=O)[C@@]2(C)O1 [forskolin],cyst formation,"[10]; ARPKD patient-derived organoids, forskolin 5, 10, 20 μM (FIGS. 6A-G)",form cysts
same,cyst formation in LTL+ proximal tubules,[10]; static organoids derived from ARPKD-patient iPSCs,induced cyst formation
same,cyst formation,PKHD1−/− organoids [11]; forskolin 20 μM (FIGS. 8A-H),form cysts
same,diameter in LTL+ CDH− (proximal) tubules,PKHD1−/− organoids [11]; [17],increases
same,diameter in LTL− CDH1+ (distal) tubules,PKHD1−/− organoids [11]; [17],increases
same,cyst formation in CDH1+ distal nephrons,[3],rarely developed cysts
same,cyst formation in LTL+ proximal tubules,[3],formed cystic structures
Z-DEVD-FMK,cyst suppression,PKHD1−/− organoids [2]; [13],marginal effect
B1,cyst suppression,PKHD1−/− organoids [2]; [13],did not affect cyst suppression
